Measured values as given in ChEMBL document CHEMBL1201862, “PubChem BioAssay data set” (2004).
Calls of active or inactive are those of the source. For most assays here, no stated cut-off is given here; in the data, actives have a measured EC50 and inactives only a lower limit.

Tests used:
[1] = tested on: Streptococcus; experiment: GAS UMAA2166 growth inhibition – luminescence, BacTiterGlo, counter-screen for streptokinase expression inhibitor project, dose response (AID 1915); assay type: functional, organism-based;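 further: potency for reduction of bacterial viability or growth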
[2] = Luminescence Cell-Based Dose Retest to Confirm Inhibitors of Cancer Stem Cells. [Related pubchem assays (depositor defined):AID2717, AID2721]; assay type: functional; details: Homo sapiens
[3] = biological target: T1, Streptokinase A (Streptococcus pyogenes serotype M1, UniProt P10520); experiment: viability-normalized secreted streptokinase activity reduction – plasminogen activation absorbance, OD405, dose response (AID 1914); assay type: functional, Streptococcus pyogenes M1 GAS;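 further: secreted streptokinase activity via plasminogen activation per viability signal from cell pellet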
T1 sequence (P10520 whole entry): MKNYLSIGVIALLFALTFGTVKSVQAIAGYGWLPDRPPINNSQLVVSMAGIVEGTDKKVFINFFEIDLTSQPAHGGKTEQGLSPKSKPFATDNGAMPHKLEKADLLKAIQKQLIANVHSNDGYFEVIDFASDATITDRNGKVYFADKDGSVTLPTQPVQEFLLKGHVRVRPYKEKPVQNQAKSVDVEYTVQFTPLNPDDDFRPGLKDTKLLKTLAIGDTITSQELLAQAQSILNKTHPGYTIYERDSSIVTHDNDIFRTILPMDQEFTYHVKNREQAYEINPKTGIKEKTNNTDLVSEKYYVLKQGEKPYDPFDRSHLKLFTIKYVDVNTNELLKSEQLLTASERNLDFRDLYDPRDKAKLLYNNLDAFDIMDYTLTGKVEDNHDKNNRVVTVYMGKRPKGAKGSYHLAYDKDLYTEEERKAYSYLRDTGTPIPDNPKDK

[4] = tested on: Streptococcus sp. 'group A'; experiment: Streptococcus pyogenes SK(-)GAS viability under kanamycin – luminescence, BacTiterGlo, confirmation, counter-screen for streptokinase expression inhibitor project, dose response (AID 1900); assay type: functional, organism-based
[5] = Trypanosoma cruzi growth suppression in host cells – NIH3T3 host cells, beta-gal luminescence, confirmation (AID 2044); assay type: functional, cell-based;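 further: intracellular parasites grown in NIH/3T3 mouse fibroblasts as host cells; luminescent beta-galactosidase reporter signal from transgenic T. cruzi replicating inside host cells; inhibitors lower the luminescence signal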
[6] = NIH3T3 cell viability loss – ATP luminescence, mouse fibroblasts, counter-screen, dose response (AID 2010); assay type: functional, cell-based;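 further: cells exposed to compound for about 90 hours before reading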
[7] = tested on: INS1; experiment: INS-1E survival protection against cytokine death – cell-based, luminescence, retest, dose response (AID 449756); assay type: functional; details: Rattus norvegicus;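 further: cell death triggered by IL-1 beta plus TNF-alpha plus IFN-gamma mixture; protective hits raise ATP signal compared with cytokine alone wells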
[8] = biological target: T2, Rac GTPase-activating protein 1 (Homo sapiens, UniProt Q9H0H5); experiment: blockers of MgcRacGAP-driven Rac1 GTP hydrolysis – biochemical, ADP Hunter fluorescence, primary and confirmatory, confirmation (AID 624330); assay type: functional
T2 sequence (Q9H0H5 whole entry): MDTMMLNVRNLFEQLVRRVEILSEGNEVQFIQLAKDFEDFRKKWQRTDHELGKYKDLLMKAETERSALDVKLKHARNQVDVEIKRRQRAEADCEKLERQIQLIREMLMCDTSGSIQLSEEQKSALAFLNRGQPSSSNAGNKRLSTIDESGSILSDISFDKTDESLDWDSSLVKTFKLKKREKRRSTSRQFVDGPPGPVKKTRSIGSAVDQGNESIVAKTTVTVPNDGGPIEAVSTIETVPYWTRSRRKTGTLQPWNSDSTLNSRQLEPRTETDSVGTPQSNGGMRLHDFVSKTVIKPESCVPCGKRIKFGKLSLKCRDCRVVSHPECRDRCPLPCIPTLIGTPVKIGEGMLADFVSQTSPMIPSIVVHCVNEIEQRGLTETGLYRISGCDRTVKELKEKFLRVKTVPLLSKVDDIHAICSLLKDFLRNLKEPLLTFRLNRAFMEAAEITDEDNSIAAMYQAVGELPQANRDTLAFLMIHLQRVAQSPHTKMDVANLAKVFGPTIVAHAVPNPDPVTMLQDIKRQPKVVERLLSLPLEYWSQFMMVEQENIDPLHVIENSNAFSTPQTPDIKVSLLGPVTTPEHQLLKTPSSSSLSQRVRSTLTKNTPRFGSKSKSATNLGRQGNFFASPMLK

[9] = biological target: Paired box protein Pax-8 (Homo sapiens, UniProt Q06710); experiment: PAX8 transcriptional activity inhibition in RMG-I – RMG-I cells, luciferase, cherry-pick, dose response (AID 687027); assay type: functional, cell-based;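 further: luciferase reporter driven by Pax8 target thyroperoxidase promoter measured by SteadyGlo luminescence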
Sequence of Paired box protein Pax-8 (Q06710 whole entry): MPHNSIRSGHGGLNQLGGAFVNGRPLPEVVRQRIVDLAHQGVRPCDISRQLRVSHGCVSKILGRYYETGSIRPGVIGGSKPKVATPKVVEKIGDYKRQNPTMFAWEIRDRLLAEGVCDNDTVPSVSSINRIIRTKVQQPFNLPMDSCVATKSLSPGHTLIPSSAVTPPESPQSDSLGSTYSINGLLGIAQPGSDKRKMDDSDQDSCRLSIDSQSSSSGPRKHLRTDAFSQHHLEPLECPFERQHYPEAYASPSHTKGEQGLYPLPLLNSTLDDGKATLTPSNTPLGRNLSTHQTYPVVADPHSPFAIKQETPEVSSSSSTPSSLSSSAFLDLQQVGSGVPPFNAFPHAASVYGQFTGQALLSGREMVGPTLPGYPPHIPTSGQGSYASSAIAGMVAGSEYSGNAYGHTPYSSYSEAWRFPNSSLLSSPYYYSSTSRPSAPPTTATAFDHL

SMILES: O=S(=O)(Nc1ccc(O)c(Sc2nc3ccccc3s2)c1)c1cccc2ccccc12
- EC50 [1]: 7.08 µM (active)
- AC50 [2]: 6.45 µM (active)
- EC50 [3]: > 150 µM (not active)
- EC50 [4]: 4.05 µM (active)

SMILES: C/C(=N\Nc1cc(C(F)(F)F)ccc1Cl)c1ccccc1O
- AC50 [2]: 83.1 µM (active)

SMILES: Cc1ccn2c(NCc3ccccc3)c(-c3cccc(SC4CCCCC4)c3)nc2c1
- AC50 [2]: 4.44 µM (active)

SMILES: c1ccc(-c2nc(N3CCN(c4ccccc4)CC3)nc(-n3ccnc3)n2)cc1
- EC50 [5]: 3.53 µM (active)
- EC50 [6]: > 60 µM (not active)

SMILES: COc1ccc(/C=C/C(=O)NC(=S)Nc2ccccc2C(=O)NC2CCCCC2)cc1
- AC50 [7]: 13.9 µM (active)

SMILES: COc1ccc(S(=O)(=O)N[C@@H](C)C(=O)OCC(=O)Nc2cc3oc4ccccc4c3cc2OC)cc1
- EC50 [1]: 16.4 µM (active)
- EC50 [3]: > 150 µM (not active)
- EC50 [4]: 1.39 µM (active)

SMILES: C/C(=N\Nc1nc2ccccc2[nH]1)c1ccc(Cl)s1
- IC50 [8]: 42 µM (active)

SMILES: C[C@@H]1CCCCO[C@H](CN(C)C(=O)NC2CCCCC2)[C@@H](C)CN([C@@H](C)CO)C(=O)c2cc(NC(=O)Nc3ccc(C(F)(F)F)cc3)ccc2O1
- AC50 [9]: 4.98 µM (active)

SMILES: C[C@@H]1CCCCO[C@@H](CN(C)Cc2ccc(Cl)c(Cl)c2)[C@H](C)CN([C@H](C)CO)C(=O)c2cc(NS(=O)(=O)c3ccccc3)ccc2O1
- AC50 [9]: 7.95 µM (active)

SMILES: C[C@@H]1CN([C@@H](C)CO)C(=O)c2cc(N(C)C)ccc2O[C@@H]1CN(C)Cc1ccc(Oc2ccccc2)cc1
- AC50 [9]: 19.1 µM (active)

SMILES: O=C(NC(=S)Nc1cccc(Cl)c1N1CCCCC1)c1ccc2c(c1)OCCO2
- EC50 [1]: > 150 µM (not active)
- AC50 [2]: 0.707 µM (active)
- EC50 [3]: 48 µM (active)
- EC50 [4]: 80.4 µM (active)

SMILES: O=C(COC(=O)c1ccccc1Br)Nc1nnc(-c2ccccc2)o1
- EC50 [1]: 19.2 µM (active)
- EC50 [3]: > 150 µM (not active)
- EC50 [4]: 0.834 µM (active)

SMILES: COC(=O)c1ccc2[nH]c3cccc(/C(=C/c4ccccc4)c4ccccc4)c3c2c1
- EC50 [1]: 3.93 µM (active)
- AC50 [7]: 11.2 µM (active)
- EC50 [3]: 1.43 µM (active)
- EC50 [4]: 0.602 µM (active)

SMILES: CS(=O)(=O)c1ccc2nc(NC(=O)c3ccc(NS(=O)(=O)c4ccc(F)c(F)c4)cc3)sc2c1
- EC50 [1]: 5.61 µM (active)
- EC50 [4]: 0.318 µM (active)

SMILES: O=C(COC(=O)Cn1cnc2ccccc2c1=O)Nc1ccc2c(c1)OCO2
- AC50 [7]: > 260 µM (inactive)

SMILES: Cc1cnccc1CN(C)Cc1cn(C)nc1-c1ccc(Oc2ccccc2)cc1
- EC50 [5]: 1.76 µM (active)
- EC50 [6]: > 30 µM (not active)

SMILES: COc1ccc(S(=O)(=O)N2CCCCN3[C@H](C2)[C@H](c2ccc(C#CC(C)C)cc2)[C@@H]3CO)cc1
- AC50 [9]: 9.44 µM (active)

SMILES: Cc1ccc(-c2nnn(CC(=O)N3c4ccccc4CCc4ccccc43)n2)cc1
- EC50 [5]: 3.26 µM (active)
- EC50 [6]: > 60 µM (not active)

SMILES: Cc1ccc2nc(-c3ccc(NC(=O)CNC4CC4)cc3)sc2c1
- EC50 [1]: > 150 µM (not active)
- EC50 [3]: > 150 µM (not active)
- EC50 [4]: 14.4 µM (active)

SMILES: CC(C)Cc1nc2oc3c(Cl)ncnc3c2c2c1CCCC2
- AC50 [2]: 3.3 µM (active)

SMILES: Cc1ccc(-n2cc(CN3CCC(CO)(Cc4cccc(C(F)(F)F)c4)CC3)cn2)cc1
- EC50 [5]: 0.896 µM (active)
- EC50 [6]: > 60 µM (not active)

SMILES: CC(C)(C)c1ccc(NC(=O)Cn2cnc3cc([N+](=O)[O-])ccc3c2=O)cc1
- EC50 [5]: 1 µM (active)
- EC50 [6]: 22.1 µM (active)

SMILES: C=CCc1cc(/C=N/c2ccc(N3CCOCC3)cc2)cc(OCC)c1O
- IC50 [8]: 13.1 µM (active)

SMILES: Cc1ccc(C)c(S(=O)(=O)N2CCN(CC(=O)NC(=O)NCc3ccccc3)CC2)c1
- EC50 [5]: 0.72 µM (active)
- EC50 [6]: > 60 µM (not active)

SMILES: Cc1c(C(=O)NN=C(S)NCc2ccc(Cl)cc2)oc2ccccc12
- EC50 [1]: > 150 µM (not active)
- EC50 [4]: 7.12 µM (active)

SMILES: C=CCc1cc(Cl)ccc1OCCn1ccnc1
- IC50 [8]: 139 µM (active)

SMILES: COc1ccc(OC)c(C2C=C(C34CC5CC(CC(C5)C3)C4)N=C(S)N2)c1 (configuration not stated)
- EC50 [1]: > 150 µM (not active)
- EC50 [5]: 1.15 µM (active)
- EC50 [3]: 14.7 µM (active)
- EC50 [4]: 11.2 µM (active)
- EC50 [6]: > 30 µM (not active)

SMILES: Cc1c(C(=O)NNC(=S)NCc2ccc(Cl)cc2)oc2ccccc12
- EC50 [3]: 22.5 µM (active)

SMILES: COc1ccccc1OCC#CCN1CCCC(C)C1 (configuration not stated)
- IC50 [8]: 182 µM (active)

SMILES: COc1cc2c(cc1OC)C1(CCCC1)C(N)=C2C#N
- IC50 [8]: 38 µM (active)

SMILES: CCOc1cc(/C=C2\SC(N)=NC2=O)ccc1O
- IC50 [8]: 47 µM (active)

SMILES: O=C1CSC(c2cccnc2)N1CC1CC1 (configuration not stated)
- AC50 [7]: > 260 µM (inactive)

SMILES: CCOC(=O)c1c(-c2cccs2)csc1NC(=O)c1ccncc1
- EC50 [5]: 2.14 µM (active)
- EC50 [6]: > 30 µM (not active)

SMILES: O=C(NN=Cc1ccc(O)cc1)c1ccccc1NS(=O)(=O)c1cccs1
- IC50 [8]: 74.4 µM (active)

SMILES: CCOC(=O)c1c(NC(=O)c2cccs2)sc2c1CCN(C(=O)OCC)C2
- EC50 [4]: 12 µM (active)

SMILES: CCOc1ccc(CN2CCN(Cc3cccc4c3OCO4)CC2CCO)cc1 (configuration not stated)
- EC50 [5]: 0.208 µM (active)
- EC50 [6]: > 60 µM (not active)

SMILES: Cc1ccc(CN2CCC(Oc3cccc(C(=O)N(C)CCN(C)C)c3)CC2)cc1C
- EC50 [5]: < 0.1 µM (active)
- EC50 [6]: 26 µM (active)

SMILES: Cc1cccc(OCC(=O)Nc2ccccc2N2CCCCC2)c1C
- EC50 [1]: 13.4 µM (active)
- EC50 [3]: 5.39 µM (active)
- EC50 [4]: 9.25 µM (active)

SMILES: Cc1cccc(C)c1OCCCCN1CCNCC1
- IC50 [8]: 122 µM (active)

SMILES: CC12CCC(C(=O)NNC(=O)c3ccccc3)(OC1=O)C2(C)C (configuration not stated)
- EC50 [1]: > 150 µM (not active)
- EC50 [3]: > 150 µM (not active)
- EC50 [4]: > 150 µM (not active)

SMILES: COc1cccc(CC2(CO)CCCN(Cc3sc(N4CCCC4)nc3Cl)C2)c1 (configuration not stated)
- EC50 [5]: 1.74 µM (active)
- EC50 [6]: > 30 µM (not active)

SMILES: Cc1cc(C)cc(NC(=O)C(NCCN2CCOCC2)c2ccccc2)c1 (configuration not stated)
- IC50 [8]: 48.4 µM (active)

SMILES: Nc1nc(Nc2cccc(Cl)c2)nc(NCc2ccco2)c1[N+](=O)[O-]
- EC50 [1]: 16.4 µM (active)
- EC50 [3]: > 150 µM (not active)
- EC50 [4]: 7.28 µM (active)

SMILES: Nc1c(C(=O)c2ccccc2)sc(Nc2ccccc2)c1S(=O)(=O)c1ccccc1
- EC50 [5]: 1.47 µM (active)
- EC50 [6]: > 60 µM (not active)

SMILES: CCOc1cccc2cc(C(=O)Oc3ccc(OC)cc3)c(=O)oc12
- IC50 [8]: 52.5 µM (active)

SMILES: COc1ccc(N2CCN(C(C)C(=O)N3CCCC3)CC2)cc1 (configuration not stated)
- IC50 [8]: 72.4 µM (active)

SMILES: Cc1ccc(NC(S)=NN=C(S)Nc2cccc(C(F)(F)F)c2)cc1
- EC50 [1]: 110 µM (active)
- EC50 [3]: > 150 µM (not active)
- EC50 [4]: 5.24 µM (active)

SMILES: CC(=O)c1c(Nc2ccc3c(c2)OCCO3)oc(C)cc1=O
- IC50 [8]: 54 µM (active)

SMILES: Cc1ccc(C(c2nnnn2Cc2ccccc2)N2CC=C(c3ccc(F)cc3)CC2)cc1 (configuration not stated)
- EC50 [5]: 1.95 µM (active)
- EC50 [6]: 20.8 µM (active)

SMILES: C[C@@H]1CCCCO[C@H](CN(C)Cc2ccc(C(F)(F)F)cc2)[C@H](C)CN([C@H](C)CO)C(=O)c2cc(NS(=O)(=O)c3cccs3)ccc2O1
- AC50 [9]: 11.5 µM (active)

SMILES: NC(=O)c1cc([N+](=O)[O-])ccc1NCc1ccc(O)cc1
- AC50 [2]: 2.92 µM (active)
